Columns and labels:
thrombus formation = experiment: Laser injury arterial thrombus formation, cremaster muscle arterioles, intravital microscopy; assay type: in vivo, mouse; settings: 20 μM circulating concentration, i.v., male C57BL/6J mice, n = 12 thrombi
Protocol: (§1) Male C57BL/6J mice (RRID:IMSR_JAX:000664 bred in house, at age 4–5 weeks with a weight range of 19–25 g) were anaesthetised by intraperitoneal injection of ketamine (125 mg·kg^−1), xylazine (12.5 mg·kg^−1) and atropine (0.25 mg·kg^−1). Platelets were labelled by intravenous infusion of DyLight 649‐conjugated anti‐GPIb platelet labelling antibody (0.2 μg·g^−1 body weight). […] Thrombi were observed using an Olympus BX microscope (Olympus, Essex, UK) and a Hamamatsu (Hamamatsu Photonics, Hertfordshire, UK) CCD camera and data analysed using Slidebook Software version 5.0 (Intelligent Imaging Innovations, Denver, USA) (Falati et al., [2006]; Holbrook et al., [2018]; Holbrook et al., [2012]). Mice were killed using Schedule 1 approved methods at the end of the experiment. […] Time to bleeding cessation was recorded. […] Animal experiments were approved by the University of Reading Local Ethical Review Panel and authorised by the UK Home Office. […]
(§2) Following laser injury, images were recorded for 5 min. […] Graphs represent mean ± SEM, n = 10 per treatment; data were analysed by Student's t‐test, *P < 0.05

HEK293T cells [1] = experiment: Proliferation assay, HEK293T; assay type: cell-based, human; settings: 1–30 μM, 72 hr
Protocol: (§3) MDA‐MB‐231 or HEK293T cells were seeded at a density of 2.5 × 10^5 cells per well in a six‐well cell culture plate and grown for 24 hr. […] Following drug treatment, wells were washed and cells manually counted by haemocytometer or automatically using a Coulter counter (Beckman Coulter, CA, USA). Cell growth inhibition was calculated by comparing the counts of drug treated cells with untreated (control) cells as described previously (Kennedy et al., [2007]).

MDA-MB-231 cells [2] = experiment: Cell migration scratch assay, MDA-MB-231; assay type: cell-based, human; settings: 20 μM, 37 hr
Protocol: (§4) MDA‐MB‐231 (ATCC Cat# HTB‐26, RRID:CVCL_0062) or HEK293T (ATCC Cat# CRL‐3216, RRID:CVCL_0063) were seeded into wells of a 12‐well plate (fibronectin coated, 10 μg·ml^−1) and grown to confluence in DMEM supplemented with 10% (v/v) FBS and 1% (v/v) penicillin–streptomycin. Following aspiration of media, a vertical scratch was performed to bisect the well and detached cells were removed by PBS washes. […] Images were analysed using Zeiss Axiovision software, and closure areas calculated using Fiji ImageJ. At 37/40 hr post‐scratch, cells were fixed in 4% (v/v) paraformaldehyde for 20 min and permeabilised with 0.2% (v/v) Triton X‐100 for 10 min. Cells were stained with phalloidin‐568 (dilution of 1:250, in PBS) for 1 hr and following washes, counterstained with DAPI (1:1,000) for 20 min. Cells were washed in PBS and mounted using Vectashield H‐1000.

[3] = system: MDA-MB-231 cell-surface free thiols; experiment: Cell-surface free thiol labelling with MPB, MDA-MB-231; assay type: cell-based, human; settings: 20 μM, vs vehicle
Protocol: (§5) MDA‐MB‐231 or HEK293T cells were cultured and treated as described before. Four hours post‐treatment, cells were washed with PBS, and free thiols labelled by incubation with MPB (100 μM) for 20 min. Free label was removed by multiple PBS washes, and cells were lysed in reducing sample treatment buffer for SDS‐PAGE analysis. Thiol labelling was detected using streptavidin‐HRP conjugate (1:10,000 dilution in 5% [w/v] BSA/TBS‐T), and chemiluminescence captured following the addition of ECL substrate.

[4] = system: haemostasis (bleeding time); experiment: Tail bleeding assay; assay type: in vivo, mouse; settings: 20 μM circulating concentration, femoral vein, 5 min before tail biopsy, n = 10; vehicle 225 s ± 28 s; not significant
Protocol: as §1, §2

ERp57 = target: T1, ERp57 (Homo sapiens, UniProt P30101); experiment: Insulin turbidity assay, ERp57; assay type: biochemical; settings: for Effect on enzyme activity of ERp57: 300 μM, highest concentration tested
T1 sequence (P30101 25-505): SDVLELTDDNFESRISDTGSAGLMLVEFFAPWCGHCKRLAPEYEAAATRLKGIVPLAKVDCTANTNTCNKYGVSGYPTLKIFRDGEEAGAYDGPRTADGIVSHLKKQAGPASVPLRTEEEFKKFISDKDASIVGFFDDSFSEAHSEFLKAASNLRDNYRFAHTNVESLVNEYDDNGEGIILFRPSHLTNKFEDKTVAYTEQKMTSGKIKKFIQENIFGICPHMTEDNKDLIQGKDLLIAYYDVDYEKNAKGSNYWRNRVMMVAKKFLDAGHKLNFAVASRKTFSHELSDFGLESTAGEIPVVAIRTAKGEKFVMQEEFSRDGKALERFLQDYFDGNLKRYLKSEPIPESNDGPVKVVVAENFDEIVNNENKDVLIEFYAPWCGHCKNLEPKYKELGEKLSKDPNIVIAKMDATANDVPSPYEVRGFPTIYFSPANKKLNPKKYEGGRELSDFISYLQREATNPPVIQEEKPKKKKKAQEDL
Protocol: (§6) Initial compound library screening was performed in an insulin turbidity assay adapted for high‐throughput screening (Holmgren, [1979]; Smith et al., [2004]). The reduction of the disulphide bond in insulin by a thiol isomerase results in the separation of the A and B chains and precipitation, which is measured by spectrophotometry at a wavelength of 650 nm. Using Corning 3891 well plates (with a final volume of 10 μl), a final concentration of 10 μg·ml^−1 of ERp57, 125‐μM insulin and 2‐mM EDTA in potassium phosphate buffer (100 mM) was added to each experimental well. Bacitracin (3 mM) was added to select wells as a positive control and vehicle plates served as a negative control. Experimental compounds were pin transferred to the wells at a final concentration of 30 μM and plates shaken. After incubation for 10 min, 0.3‐mM DTT was added to propagate enzyme activity. Following reaction for 1 hr at 37°C, plates were read using a PerkinElmer Envision plate reader (PerkinElmer, Waltham, MA). All compounds were tested in duplicate at the ICCB‐Longwood Screening Facility at Harvard Medical School.
(§7) Lead compounds were diluted in a 6‐point dose curve (concentrations depending on the observed effects in the initial screen) and insulin turbidity was measured kinetically each minute for 75 min using a Spectramax M3 microplate reader (Molecular Devices, Sunnyvale, CA). Specificity assay also utilised the insulin turbidity assay to determine specificity of inhibition; ERp57 was replaced with PDI (10 μg·ml^−1), ERp5 (30 μg·ml^−1), ERp72 (10 μg·ml^−1) or thioredoxin (10 μg·ml^−1), to determine the ability of lead compounds to inhibit these enzymes.
(§8) A total of 3,641 compounds were screened for inhibitory effects on the redox activity of ERp5, protein disulphide isomerase (PDI), ERp57, ERp72 and thioredoxin (TRX), all assayed at 10 μg·ml^−1 except ERp5 which was assayed at 30 μg·ml^−1. ZFL was selected for further investigation. […] (a) Enzyme assays performed in the absence of enzyme with drug only.

ERp5 = target: T2, ERp5 (Homo sapiens, UniProt Q15084); experiment: Insulin turbidity assay, ERp5; assay type: biochemical; settings: ERp5 30 μg·ml^−1, 650 nm, 37°C
T2 sequence (Q15084 20-440): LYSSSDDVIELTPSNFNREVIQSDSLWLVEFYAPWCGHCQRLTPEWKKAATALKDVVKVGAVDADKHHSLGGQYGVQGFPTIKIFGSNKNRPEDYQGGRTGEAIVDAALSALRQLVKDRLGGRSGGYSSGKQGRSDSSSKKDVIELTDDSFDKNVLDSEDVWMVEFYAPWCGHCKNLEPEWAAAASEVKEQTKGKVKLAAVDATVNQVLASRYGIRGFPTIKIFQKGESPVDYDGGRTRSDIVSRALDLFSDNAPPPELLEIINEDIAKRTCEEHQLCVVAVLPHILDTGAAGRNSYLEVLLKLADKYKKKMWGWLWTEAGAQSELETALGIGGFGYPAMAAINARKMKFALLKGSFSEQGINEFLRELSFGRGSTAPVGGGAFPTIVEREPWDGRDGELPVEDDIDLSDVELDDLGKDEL
Protocol: as §6
(§9) Lead compounds were diluted in a 6‐point dose curve (concentrations depending on the observed effects in the initial screen) and insulin turbidity was measured kinetically each minute for 75 min using a Spectramax M3 microplate reader (Molecular Devices, Sunnyvale, CA). […]

ERp72 = target: T3, ERp72 (Homo sapiens, UniProt P13667); experiment: Insulin turbidity assay, ERp72; assay type: biochemical; settings: ERp72 10 μg·ml^−1, 650 nm, 37°C
T3 sequence (P13667 21-645): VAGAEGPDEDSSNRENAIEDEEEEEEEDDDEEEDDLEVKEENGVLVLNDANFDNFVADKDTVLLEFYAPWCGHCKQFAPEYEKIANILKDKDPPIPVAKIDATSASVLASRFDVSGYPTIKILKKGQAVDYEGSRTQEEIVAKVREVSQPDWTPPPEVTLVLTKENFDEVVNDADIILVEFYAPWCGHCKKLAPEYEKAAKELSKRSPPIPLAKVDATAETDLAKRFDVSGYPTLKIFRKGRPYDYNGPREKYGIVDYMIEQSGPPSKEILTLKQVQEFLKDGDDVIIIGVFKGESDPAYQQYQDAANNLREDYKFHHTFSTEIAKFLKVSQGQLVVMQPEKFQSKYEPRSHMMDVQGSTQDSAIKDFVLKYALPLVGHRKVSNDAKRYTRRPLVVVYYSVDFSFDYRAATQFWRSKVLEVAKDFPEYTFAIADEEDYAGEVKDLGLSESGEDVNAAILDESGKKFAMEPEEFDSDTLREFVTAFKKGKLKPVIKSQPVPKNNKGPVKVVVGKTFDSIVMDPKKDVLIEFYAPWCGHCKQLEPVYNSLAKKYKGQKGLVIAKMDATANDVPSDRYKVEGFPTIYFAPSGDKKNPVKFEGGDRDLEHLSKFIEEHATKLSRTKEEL
Protocol: as §6, §9

[5] = system: HEK293T cell-surface free thiols; experiment: Cell-surface free thiol labelling with MPB, HEK293T; assay type: cell-based, human; settings: 20 μM, vs vehicle
Protocol: as §5

PDI = PDI (Homo sapiens, UniProt P07237); experiment: Insulin turbidity assay, PDI; assay type: biochemical; settings: for Effect on enzyme activity of PDI: 300 μM, highest concentration tested
PDI, sequence (P07237 18-508, species assumed): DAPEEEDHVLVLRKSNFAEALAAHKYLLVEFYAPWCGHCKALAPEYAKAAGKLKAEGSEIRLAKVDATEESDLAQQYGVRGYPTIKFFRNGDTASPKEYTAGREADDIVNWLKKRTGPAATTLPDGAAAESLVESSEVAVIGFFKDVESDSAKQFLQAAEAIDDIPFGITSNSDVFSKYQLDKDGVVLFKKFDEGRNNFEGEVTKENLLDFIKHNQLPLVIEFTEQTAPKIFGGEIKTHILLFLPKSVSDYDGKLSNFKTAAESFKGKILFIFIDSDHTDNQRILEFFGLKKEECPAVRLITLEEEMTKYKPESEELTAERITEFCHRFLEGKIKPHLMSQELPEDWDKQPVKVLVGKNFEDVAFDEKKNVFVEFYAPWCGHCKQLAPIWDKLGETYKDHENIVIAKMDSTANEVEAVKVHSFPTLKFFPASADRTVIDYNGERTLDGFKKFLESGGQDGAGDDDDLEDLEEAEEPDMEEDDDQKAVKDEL
Protocol: as §6, §7, §8

MDA-MB-231 cells [6] = experiment: 3-day growth inhibition (proliferation) assay, MDA-MB-231; assay type: cell-based, human; settings: 72 hr
Protocol: as §3

thioredoxin (TRX) = target: T4, thioredoxin (TRX) (Homo sapiens, UniProt P10599); experiment: Insulin turbidity assay, thioredoxin; assay type: biochemical; settings: for Effect on enzyme activity of thioredoxin: 300 μM, highest concentration tested
T4 sequence (P10599 1-105): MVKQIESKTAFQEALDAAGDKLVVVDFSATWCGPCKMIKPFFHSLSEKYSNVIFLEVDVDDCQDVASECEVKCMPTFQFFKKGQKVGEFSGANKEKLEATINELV
Protocol: as §6, §7, §8

[7] = parameters: method as in Fischer et al., [2000]; settings: oral 20 mg twice daily; ref Fischer et al., [2000]; cited from earlier work
HEK293T cells [8] = experiment: Cell migration scratch assay, HEK293T; assay type: cell-based, human; settings: 20 μM, 40 hr
Protocol: as §4

Compound: COc1cc(C(=O)NS(=O)(=O)c2ccccc2C)ccc1Cc1cn(C)c2ccc(NC(=O)OC3CCCC3)cc12 [zafirlukast]
- Thrombus size (maximum fluorescence intensity) (thrombus formation): significantly impaired
- Impairment of cell proliferation (HEK293T cells [1]): not detected
- Closure area at endpoint (MDA-MB-231 cells [2]; vehicle 62,163 ± 23,552): 243,707 ± 51,057
- Scratch area covered at endpoint (MDA-MB-231 cells [2]; vehicle over 86%): 56%
- Reduction of surface free thiol (MPB) labelling [3]: 42%
- Bleeding time [4]: 243 s
- Effect on enzyme activity of ERp57 (ERp57): almost entirely ablate
- Inhibition of ERp57 activity, concentration dependence (ERp57; ERp57 10 μg·ml^−1, 650 nm, 37°C): concentration dependently inhibits
- Inhibition of ERp5 activity, concentration dependence (ERp5): concentration dependently inhibits
- Inhibition of ERp72 activity, concentration dependence (ERp72): concentration dependently inhibits
- Decrease of surface MPB labelling [5]: 47%
- Effect on enzyme activity of PDI (PDI): almost entirely ablate
- Inhibition of PDI activity, concentration dependence (PDI; PDI 10 μg·ml^−1, 650 nm, 37°C): concentration dependently inhibits
- Effect on cell proliferation (MDA-MB-231 cells [6]; 20 μM): minimal effect
- Reduction of proliferation (MDA-MB-231 cells [6]; 30 μM): around 20%
- Effect on enzyme activity of thioredoxin (thioredoxin (TRX)): almost entirely ablate
- Inhibition of thioredoxin (TRX) activity, concentration dependence (thioredoxin (TRX); TRX 10 μg·ml^−1, 650 nm, 37°C): concentration dependently inhibits
- Peak plasma concentration (cMax) [7]: 697 ng/mL
- Peak plasma concentration, equivalent [7]: 1.2 µM
- Time of peak plasma concentration [7]: 3 h
- Closure area at endpoint (HEK293T cells [8]; vehicle 80,686 [±15,705]): 1,475,154 [±81,061]
- Scratch area coverage (migration) at endpoint (HEK293T cells [8]; vehicle over 96%): 32%

Compound: CC(C)(O)c1ccccc1CC[C@@H](SCC1(CC(=O)O)CC1)c1cccc(/C=C/c2ccc3ccc(Cl)cc3n2)c1 [montelukast]
- Effect on enzyme activity of ERp57 (ERp57): almost entirely ablate
- Effect on enzyme activity of PDI (PDI): almost entirely ablate
- Effect on enzyme activity of thioredoxin (thioredoxin (TRX)): almost entirely ablate

From PMC9328650 (British Journal of Pharmacology, 2021)
